Broadly, the IC50 is the concentration that gives 50% inhibition. High values mean weaker potency, low ones greater potency.

Some results are limits rather than exact numbers.

Experimental findings from patent US10112929B2, “Lactams as inhibitors of rock” (BRISTOL-MYERS SQUIBB COMPANY, priority 2015, dated 2018) are described below.

The target in the assay is ROCK2 (Homo sapiens (Human), UniProt O75116). Kind of assay: biochemical.
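Also: rho kinase enzyme reaction halted with EDTA, phospho- and non-phospho peptide separated for read-out, kinase activity inhibition derived across a dose-response series, DMSO under 2%.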

Sequence of ROCK2 (O75116 whole entry, species assumed): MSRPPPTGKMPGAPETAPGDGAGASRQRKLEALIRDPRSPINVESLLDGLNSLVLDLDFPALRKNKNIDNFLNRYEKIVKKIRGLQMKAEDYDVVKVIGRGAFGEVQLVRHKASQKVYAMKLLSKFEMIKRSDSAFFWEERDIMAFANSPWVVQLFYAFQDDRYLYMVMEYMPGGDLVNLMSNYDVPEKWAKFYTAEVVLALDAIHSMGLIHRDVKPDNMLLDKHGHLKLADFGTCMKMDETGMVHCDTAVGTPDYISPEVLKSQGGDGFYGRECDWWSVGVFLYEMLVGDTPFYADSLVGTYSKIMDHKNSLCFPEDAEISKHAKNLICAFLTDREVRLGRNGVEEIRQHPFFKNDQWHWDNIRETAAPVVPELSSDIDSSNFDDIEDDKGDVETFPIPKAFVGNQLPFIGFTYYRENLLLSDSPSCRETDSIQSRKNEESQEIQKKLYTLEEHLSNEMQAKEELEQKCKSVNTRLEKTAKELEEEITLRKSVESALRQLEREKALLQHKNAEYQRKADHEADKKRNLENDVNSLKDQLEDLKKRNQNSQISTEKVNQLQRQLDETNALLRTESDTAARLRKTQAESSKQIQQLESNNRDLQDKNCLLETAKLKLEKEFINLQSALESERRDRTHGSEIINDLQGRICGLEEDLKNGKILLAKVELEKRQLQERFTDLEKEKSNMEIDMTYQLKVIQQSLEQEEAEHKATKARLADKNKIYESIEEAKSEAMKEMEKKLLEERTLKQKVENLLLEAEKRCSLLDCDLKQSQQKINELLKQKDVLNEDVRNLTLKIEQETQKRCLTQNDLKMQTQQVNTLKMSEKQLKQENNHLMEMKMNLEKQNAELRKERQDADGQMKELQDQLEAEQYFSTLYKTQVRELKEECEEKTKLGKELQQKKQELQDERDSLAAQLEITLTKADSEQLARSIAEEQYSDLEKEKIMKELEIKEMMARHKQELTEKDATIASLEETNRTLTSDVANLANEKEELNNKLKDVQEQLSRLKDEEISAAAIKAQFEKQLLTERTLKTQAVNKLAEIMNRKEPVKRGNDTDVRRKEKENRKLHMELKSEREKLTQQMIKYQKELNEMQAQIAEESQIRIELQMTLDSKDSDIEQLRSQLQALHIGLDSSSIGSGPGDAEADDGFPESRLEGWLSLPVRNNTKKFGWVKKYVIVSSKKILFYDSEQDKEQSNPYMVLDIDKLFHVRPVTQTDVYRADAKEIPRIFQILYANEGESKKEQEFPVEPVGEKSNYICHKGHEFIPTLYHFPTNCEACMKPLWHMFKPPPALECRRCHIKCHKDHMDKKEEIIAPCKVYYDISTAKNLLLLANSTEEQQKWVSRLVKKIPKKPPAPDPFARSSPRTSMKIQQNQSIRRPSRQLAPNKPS

Regarding `CCOc1cc(N2CCC(Nc3cc(F)cc(OC)c3)C2=O)ccc1-c1cn[nH]c1` (single isomer, unassigned) [Example 36, 1-(3-ethoxy-4-(1H-pyrazol-4-yl)phenyl)-3-((3-fluoro-5-methoxyphenyl)amino)pyrrolidin-2-one], the 50% inhibitory concentration (IC50) was under 10 nM.

Compound `COc1cc(N2CCC(Nc3cccc(OC(F)F)c3)C2=O)ccc1-c1cn[nH]c1` (stereo not shown) [Example 66, 3-((3-(Difluoromethoxy)phenyl)amino)-1-(3-methoxy-4-(1H-pyrazol-4-yl)phenyl)pyrrolidin-2-one] had an IC50 of under 10 nM.

`COc1cccc(NC2CCN(c3cc(F)c(-c4cn[nH]c4)cc3F)C2=O)c1` (single isomer, unassigned) [Example 353, 1-(2,5-difluoro-4-(1H-pyrazol-4-yl)phenyl)-3-((3-methoxyphenyl)amino)pyrrolidin-2-one] showed a 50% inhibitory concentration (IC50) of 10 to 100 nM.

Regarding `COc1nc(N2CCC(N3CCNc4ccccc43)C2=O)ccc1-c1cn[nH]c1` (racemic) [Example 228, 3-(3,4-dihydroquinoxalin-1(2H)-yl)-1-(6-methoxy-5-(1H-pyrazol-4-yl)pyridin-2-yl)pyrrolidin-2-one], the IC50 was under 10 nM.

`COc1cccc(NC2CCN(c3cc(C)c(-c4cn[nH]c4)cn3)C2=O)c1` (racemic) [Example 200, 3-((3-methoxyphenyl)amino)-1-(4-methyl-5-(1H-pyrazol-4-yl)pyridin-2-yl)pyrrolidin-2-one] displayed an IC50 of 100 to 2200 nM.

In the case of `COc1cc(F)cc(OC2CCN(c3ccc(-c4cn[nH]c4)cc3)C2=O)c1` (stereo not shown) [Example 112, 1-(4-(1H-pyrazol-4-yl)phenyl)-3-(3-fluoro-5-methoxyphenoxy)pyrrolidin-2-one], the IC50 is 100 to 2200 nM.

For the compound `COc1cccc(NC2CCN(c3cnc(-c4cn[nH]c4)c(OC)n3)C2=O)c1` (stereo not shown) [Example 134, 1-(6-Methoxy-5-(1H-pyrazol-4-yl)pyrazin-2-yl)-3-((3-methoxyphenyl)amino) pyrrolidin-2-one], the 50% inhibitory concentration (IC50) was under 10 nM.

`COc1ccc(F)cc1NC1CCN(c2ccc(-c3cn[nH]c3)cc2)C1=O` (stereo not shown) [Example 5, 1-(4-(1H-pyrazol-4-yl)phenyl)-3-((5-fluoro-2-methoxyphenyl)amino)pyrrolidin-2-one] displayed a concentration for half-maximal inhibition (IC50) of 10 to 100 nM.

On to `O=C1C(Nc2ccccc2)CCN1c1ccc(-c2cn[nH]c2)c(F)c1` (single isomer, unassigned) [Example 43, 1-(3-fluoro-4-(1H-pyrazol-4-yl)phenyl)-3-(phenylamino)pyrrolidin-2-one], for which the half-inhibitory concentration (IC50) is under 10 nM.

As for `COc1cccc(NC2CCN(c3ccc(-c4cn[nH]c4)c(OC)c3)C2=O)c1` (single isomer, unassigned) [Example 74, 1-(3-methoxy-4-(1H-pyrazol-4-yl)phenyl)-3-((3-methoxyphenyl)amino)pyrrolidin-2-one], the IC50 was under 10 nM.

On to `COc1cc(N2CCC(Nc3cc(F)cc(F)c3)C2=O)ccc1-c1cn[nH]c1` (single isomer, unassigned) [Example 145, 3-((3,5-difluorophenyl)amino)-1-(3-methoxy-4-(1H-pyrazol-4-yl)phenyl) pyrrolidin-2-one], for which the IC50 was in the range of 10 to 100 nM.

`COc1cc(F)cc(OC2CCN(c3ccc(-c4cn[nH]c4)c(OC)n3)C2=O)c1` (single isomer, unassigned) [Example 173, 3-(3-fluoro-5-methoxyphenoxy)-1-(6-methoxy-5-(1H-pyrazol-4-yl)pyridin-2-yl)pyrrolidin-2-one] displayed a half-maximal inhibitory concentration (IC50) of under 10 nM.

On to `COc1nc(N2CCC(Nc3cccc(NC(C)=O)c3)C2=O)ccc1-c1cn[nH]c1` (racemic) [Example 260, N-(3-((1-(6-methoxy-5-(1H-pyrazol-4-yl)pyridin-2-yl)-2-oxopyrrolidin-3-yl)amino)phenyl)acetamide], for which the IC50 is under 10 nM.

On to `COc1cc(NC2CCN(c3ccc(-c4cn[nH]c4)c(C(F)F)c3)C2=O)ccc1F` (single isomer, unassigned) [Example 180, 1-(3-(difluoromethyl)-4-(1H-pyrazol-4-yl)phenyl)-3-((4-fluoro-3-methoxyphenyl)amino)pyrrolidin-2-one], for which the half-maximal inhibitory concentration (IC50) lay in the range of 100 to 2200 nM.

With `COc1cc(NC2CCN(c3ccc(-c4cn[nH]c4)nc3)C2=O)ccc1F` (single isomer, unassigned) [Example 299, 1-(6-(1H-pyrazol-4-yl)pyridin-3-yl)-3-((4-fluoro-3-methoxyphenyl)amino)pyrrolidin-2-one], the IC50 is 10 to 100 nM.

Regarding `COc1cc(F)cc(NC2CCN(c3ccc(-c4cn[nH]c4)c(C(F)(F)F)c3)C2=O)c1` (single isomer, unassigned) [Example 369, 1-(4-(1H-pyrazol-4-yl)-3-(trifluoromethyl)phenyl)-3-((3-fluoro-5-methoxyphenyl)amino)pyrrolidin-2-one], the IC50 fell in the range of 100 to 2200 nM.

On to `COc1nc(N2CCC(Nc3ccc4ncsc4c3)C2=O)ccc1-c1cn[nH]c1` (racemic) [Example 259, 3-(benzo[d]thiazol-6-ylamino)-1-(6-methoxy-5-(1H-pyrazol-4-yl)pyridin-2-yl)pyrrolidin-2-one], for which the 50% inhibitory concentration (IC50) is under 10 nM.

`CCOc1cccc(NC2CCN(c3ccc(-c4cn[nH]c4)c(OC)c3)C2=O)c1` (single isomer, unassigned) [Example 250, 3-((3-ethoxyphenyl)amino)-1-(3-methoxy-4-(1H-pyrazol-4-yl)phenyl)pyrrolidin-2-one] gave an IC50 of under 10 nM.

As for `O=C1C(c2ccccc2)CCN1c1ccc(-c2cn[nH]c2)cc1` (stereo not shown) [Example 101, 1-(4-(1H-pyrazol-4-yl)phenyl)-3-phenylpyrrolidin-2-one], the IC50 lay within 10 to 100 nM.

As to `COc1nc(N2CCC(N3CCC(CO)CC3)C2=O)ccc1-c1cn[nH]c1` (racemic) [Example 289, 3-(4-(hydroxymethyl)piperidin-1-yl)-1-(6-methoxy-5-(1H-pyrazol-4-yl)pyridin-2-yl)pyrrolidin-2-one], the 50% inhibitory concentration (IC50) was in the range of 10 to 100 nM.

On to `COc1cccc(NC2CCN(c3ccc(-c4cn[nH]c4)c(C(F)(F)F)c3)C2=O)c1` (single isomer, unassigned) [Example 367, 1-(4-(1H-pyrazol-4-yl)-3-(trifluoromethyl)phenyl)-3-((3-methoxyphenyl)amino) pyrrolidin-2-one], for which the IC50 was 100 to 2200 nM.

Turning to `CCc1cc(N2CCC(Nc3cccc(OC)c3)C2=O)ccc1-c1cn[nH]c1` (single isomer, unassigned) [Example 243, 1-(3-ethyl-4-(1H-pyrazol-4-yl)phenyl)-3-((3-methoxyphenyl)amino)pyrrolidin-2-one], the 50% inhibitory concentration (IC50) fell in the range of 10 to 100 nM.

In turn, `COc1cc(NC2CCN(c3ccc(-c4cn[nH]c4)c(Cl)c3)C2=O)ccc1F` (single isomer, unassigned) [Example 161, 1-(3-chloro-4-(1H-pyrazol-4-yl)phenyl)-3-((4-fluoro-3-methoxyphenyl)amino) pyrrolidin-2-one] returned an IC50 of under 10 nM.

Consider `O=C1[C@H](Nc2ccc3c(c2)CS(=O)(=O)C3)CCN1c1ccc(-c2cn[nH]c2)cc1` [Example 392, (R)-1-(4-(1H-pyrazol-4-yl)phenyl)-3-((2,2-dioxido-1,3-dihydrobenzo[c]thiophen-5-yl)amino)pyrrolidin-2-one], for which the concentration for half-maximal inhibition (IC50) was 100 to 2200 nM.

Regarding `O=C1C(c2cccc(F)c2)CCN1c1ccc(-c2cn[nH]c2)cc1` (stereo not shown) [Example 102, 1-(4-(1H-pyrazol-4-yl)phenyl)-3-(3-fluorophenyl)pyrrolidin-2-one], the IC50 was 100 to 2200 nM.

Regarding `COc1cc(F)cc(NC2CCN(c3ccc(-c4cn[nH]c4)c(C#N)c3)C2=O)c1` (single isomer, unassigned) [Example 375, 5-(3-((3-fluoro-5-methoxyphenyl)amino)-2-oxopyrrolidin-1-yl)-2-(1H-pyrazol-4-yl)benzonitrile], the half-maximal inhibitory concentration (IC50) was in the range of 10 to 100 nM.

Regarding `O=C1C(Nc2nc3ccccc3[nH]2)CCN1c1ccc(-c2cn[nH]c2)cc1` (single isomer, unassigned) [Example 56, 3-((1H-benzo[d]imidazol-2-yl)amino)-1-(4-(1H-pyrazol-4-yl)phenyl)pyrrolidin-2-one], the half-maximal inhibitory concentration (IC50) fell in the range of 10 to 100 nM.

Turning to `O=C1C(Nc2cccc(OC(F)F)c2)CCN1c1ccc(-c2cn[nH]c2)cc1` (single isomer, unassigned) [Example 231, 1-(4-(1H-pyrazol-4-yl)phenyl)-3-((3-(difluoromethoxy)phenyl)amino) pyrrolidin-2-one], the IC50 lay within 10 to 100 nM.

For `O=C1C(Nc2cccc(OCC(F)F)c2)CCN1c1ccc(-c2cn[nH]c2)cc1` (single isomer, unassigned) [Example 238, 1-(4-(1H-pyrazol-4-yl)phenyl)-3-((3-(2,2-difluoroethoxy)phenyl)amino)pyrrolidin-2-one], the half-inhibitory concentration (IC50) was in the range of 10 to 100 nM.

In the case of `O=C1[C@H](N2CCCc3ccccc32)CCN1c1ccc(-c2cn[nH]c2)cc1` [Example 394, (R)-1-(4-(1H-pyrazol-4-yl)phenyl)-3-(3,4-dihydroquinolin-1(2H)-yl)pyrrolidin-2-one], the IC50 was 10 to 100 nM.

The compound `COc1cc(N2CCC(Nc3cccc(F)c3OC)C2=O)ccc1-c1cn[nH]c1` (single isomer, unassigned) [Example 150, 3-((3-fluoro-2-methoxyphenyl)amino)-1-(3-methoxy-4-(1H-pyrazol-4-yl)phenyl) pyrrolidin-2-one] returned an IC50 of 100 to 2200 nM.

In turn, `COc1cccc(NC2CCN(c3ccc(-c4cn[nH]c4)c(OC)n3)C2=O)c1` (single isomer, unassigned) [Example 196, 1-(6-methoxy-5-(1H-pyrazol-4-yl)pyridin-2-yl)-3-((3-methoxyphenyl)amino) pyrrolidin-2-one] registered an IC50 of under 10 nM.

Consider `COc1cc(NC2CCN(c3ccc(-c4cn[nH]c4)c(C(F)(F)F)c3)C2=O)ccc1F` (single isomer, unassigned) [Example 371, 1-(4-(1H-pyrazol-4-yl)-3-(trifluoromethyl)phenyl)-3-((4-fluoro-3-methoxyphenyl)amino)pyrrolidin-2-one], for which the IC50 is 100 to 2200 nM.

As for `COc1cccc(NC2CCN(c3ccc(-c4cn[nH]c4)c(Cl)c3)C2=O)c1` (single isomer, unassigned) [Example 164, 1-(3-chloro-4-(1H-pyrazo1-4-yl)phenyl)-3 ((3-methoxyphenyl)amino)pyrrolidin-2-one], the IC50 is under 10 nM.
